Experimental data published in patent US12318457B2, “Oligosaccharide linker, linker-payload comprising the same and glycan chain-remodeled antibody-drug conjugate, preparation methods and uses thereof” (GENEQUANTUM HEALTHCARE (SUZHOU) CO., LTD., priority 2022, dated 2025).
Like-named read-outs stand apart in the source and are kept apart here. Non-standard residues stand in square brackets, D forms with d. Residues, ends and D or L forms follow the SMILES beside them. *: point of attachment. Dolaproine = CO[C@@H]([C@@H]1CCCN1)[C@@H](C)C(=O)O; Dil = CC[C@H](C)[C@H](NC)[C@@H](CC(=O)O)OC; X1 = C[C@@H](N*)[C@@H](O)c1ccccc1; NMeV = CN[C@H](C(=O)O)C(C)C

Columns and labels:
Assay type in all cases: cell-based
[1] = test system: ErbB2/HER2-positive human breast cancer cells BT-474; experiment: Tumor cell proliferation inhibition (CellTiter Glo), BT-474
Experimental: (§1) 1) ErbB2/HER2-positive human breast cancer cells BT-474, ErbB2/HER2-positive human gastric cancer cells NCI-N87 and ErbB2/HER2-negative human liver cancer cells HepG2 were inoculated into a 96-well cell plate at 100 μL/well (1000 to 10000 cells), and incubated overnight in a cell incubator under the conditions of 37° C., 5% CO2, 95% air and 100% humidity.
(§2) 3) The cell plate was removed from the 37° C. cell incubator, and equilibrated for about 30 min to rt. 100 μL of CellTiter Glo reagent was added into each well, a shaker shook for 2 min, followed by standing in a dark place at rt for 10 min, and the relative light unit (RLU) was measured with a Cytation 3 microplate reader.

[2] = test system: BxPC-3 (human pancreatic cancer cell); experiment: Tumor cell proliferation inhibition, BxPC-3
Experimental: as §1, §2
(§3) For example, BxPC-3, FaDu, HepG2 and other human tumor cells were selected.
(§4) For example, TROP2-positive human tumor cells such as BxPC-3 (human pancreatic cancer cell) and FaDu (human throat cancer cell), and TROP2-negative tumor cells such as HepG2 (human liver cancer cell) were selected.

[3] = test system: ErbB2/HER2-positive human gastric cancer cells NCI-N87; experiment: Tumor cell proliferation inhibition (CellTiter Glo), NCI-N87
Experimental: as §1, §2

[4] = test system: FaDu (human throat cancer cell); experiment: Tumor cell proliferation inhibition, FaDu
Experimental: as §1, §2, §3, §4

[5] = test system: human liver cancer cells HepG2; experiment: Tumor cell proliferation inhibition (CellTiter Glo), HepG2
Experimental: as §1, §2, §3, §4

Which results are given for `CC[C@H](C)[C@@H]([C@@H](CC(=O)N1CCC[C@H]1[C@H](OC)[C@@H](C)C(=O)N[C@H](C)[C@@H](O)c1ccccc1)OC)N(C)C(=O)[C@@H](NC(=O)[C@@H](NC)C(C)C)C(C)C` [MMAE, monomethylauristatin E] (H-[NMeV]V[Dil][Dolaproine]-X1)?
IC50 ([1]; BT-474, ErbB2/HER2-positive, 72 to 120 h, read-out: Proliferation Inhibition Effect on Tumor Cells (IC50)): 0.272 nM; maximum killing percentage relative to the control group ([1]; BT-474, control puromycin 5 μM): 86.46%; maximum killing percentage relative to the control group ([2]; BxPC-3): 99.56%; IC50 ([2]; BxPC-3, TROP2-positive, Table 7, read-out: Proliferation Inhibition Action on Tumor Cells (IC50)): 0.388 nM; IC50 ([3]; NCI-N87, ErbB2/HER2-positive, 72 to 120 h, read-out: Proliferation Inhibition Effect on Tumor Cells (IC50)): 0.248 nM; maximum killing percentage relative to the control group ([3]; NCI-N87, control puromycin 5 μM): 90.78%; maximum killing percentage relative to the control group [4]: 90.87%; IC50 ([4]; TROP2-positive, Table 7, read-out: Proliferation Inhibition Action on Tumor Cells (IC50)): 0.167 nM; IC50 ([5]; HepG2, ErbB2/HER2-negative, 72 to 120 h, read-out: Proliferation Inhibition Effect on Tumor Cells (IC50)): 0.567 nM; maximum killing percentage relative to the control group ([5]; HepG2, ErbB2/HER2-negative, control puromycin 5 μM): 74.88%; maximum killing percentage relative to the control group ([5]; HepG2, TROP2-negative): 83.43%; IC50 ([5]; HepG2, TROP2-negative, Table 7, read-out: Proliferation Inhibition Action on Tumor Cells (IC50)): 0.398 nM
